Results: patent publication US5482954A, “Signal transduction inhibitor triazole and diazole compounds” (priority 1994, dated 1996)
Where two headings read alike, the source gives them in different places.

Experiments:
[1] = test system: voltage-gated L-type calcium channels in vascular smooth muscle cells; details: patch clamp; Merritt, et al.; cited from earlier work
RMCE in platelets = details: Merritt, et al.; cited from earlier work
[2] = test system: RMCE in endothelial cells; details: Merritt, et al.; cited from earlier work
RMCE in neutrophils = details: Merritt, et al.; cited from earlier work
CHOm5 cells [3] = test: Carbachol-stimulated arachidonic acid release; assay type: cell-based, Chinese hamster; details: Table K
From the text: This example illustrates the effect of selected compounds on the release of arachidonic acid from carbachol-stimulated CHOm5 cells. Carbachol is a muscarinic agonist which in the muscarinic receptor transfected CHO cells stimulates the activation of phospholipase A2, resulting in arachidonic acid release and metabolism. Downstream metabolites of arachidonic acid, prostaglandins and leukotrienes are also second messengers.
The effect of compound 1 on arachidonic acid release from CHOm5 cells was determined by incubating the cells to isotopic equilibrium with labelled arachidonic acid, then washing the cells twice with 1 mL of serum-free media supplemented with 20 mM HEPES and 0.2% bovine serum albumin (fatty acid free) to trap the unincorporated labelled arachidonic acid, and then simultaneously adding carbachol (100 μM) and increasing concentrations of 1. After 15 min, the reaction was stopped by removing the incubation media which was then centrifuged at 10,000×g to eliminate any nonadherent cells.

A2058 cells [4] = test: Proliferation of A2058 cells (monolayer growth, crystal violet); assay type: cell-based, human; details: for activity at 10 µM: Homo sapiens, read-out: GROWTH (% OF CONTROL)
Protocol: For the clonogenic assay, aliquots of 50,000 cells per well (24 well plates) were grown under standard tissue culture conditions in the presence of increasing doses or test compound (0-10 μg/mL) or vehicle control. After 96 hr, the cells were gently washed with PBS, fixed, and stained with 0.5% crystal violet nuclear stain in 20% methanol. Excess stain was removed with tap water and bound stain was eluted with an equal volume solution of 01N sodium citrate (pH 4.2) and absolute ethanol. Optical density (O.D.) of eluted crystal violet stain was determined at 540 nm. The results of dose-dependent inhibition of tumor cell proliferation by compound 1 are shown in FIG. 5, in which the data are expressed as percent of untreated control cell proliferation for each cell type. The degree of inhibition varied with the cell type and was maximal (76%) for the A2058 cell line.
A2058 human melanoma cells were used to test the effect of compounds 1 and 3-25 on cellular proliferation. The cells were cultured in the presence of the test compounds (10 μM) for 96 hr. fixed and stained with crystal violet as described above. Growth inhibition was determined as a percent of control growth (using either DMSO or PEG-400 as the vehicle) for each compound. Each experiment was run a minimum of three times and the average of the results for each compound is provided in Table H and in FIGS. 20A and 20B.

CHOm5 cells [5] = test: Carbachol-stimulated 45Ca2+ influx; assay type: cell-based, Chinese hamster; set-up: % Inhibition of 45Ca2+ Influx into CHOm5 Cells: concentration or dose not given beside the values; details: Table I; carbachol-stimulated
Protocol: (§1) Calcium influx was determined using two methods. The first method involved the use of ^45 Ca^2+, while the second method utilized a fluorescent intracellular calcium chelator, Fura-2. The method using Fura-2 is semi-quantitative and is preferred for kinetic analysis and screening whereas the ^45 Ca^2+ method is quantitative.
CHOm5 cells in monolayer culture were washed free of serum-containing media and incubated with either carbachol or the calcium ionophore A23187 (from Molecular Probes, Eugene, Oreg., USA) in the presence of ^45 Ca^2+ and defined buffer (E2 medium with 0.1 mM MgCl2 and 1.0 mM CaCl2). After incubation for 5 min, the radioactive buffer was rapidly and repeatedly washed off with media containing LaCl3, a competitor of calcium efflux. The cell monolayer was solubilized and the calcium uptake was determined by scintillation counting.
Stimulated uptake of radiolabelled calcium was measured as described above. The abbreviations CTL and CC are control and carbachol-stimulated calcium influx values. respectively.

A2058 cells [6] = test: Colony formation (soft agar); assay type: cell-based, human; details: for COLONY FORMATION (% OF CONTROL): Table H, soft agar; for Colony Formation (% of Control): Table K
Protocol: Colony formation: Compound 1 was evaluated at three concentrations for inhibition of colony formation in both the A2058 and OVCAR3 cell lines. Colony number was determined in triplicate and compared to the vehicle control run on each 24 well plate to provide a percent. Colonies greater than 60 cells were counted at 100× under phase contrast. […] In a second study, selected compounds were evaluated for their effect on density-independent growth of the A2058 cell line in soft agar. Percent inhibition was determined over triplicate experiments involving three log molar concentrations of the test compound.

[7] = test system: signal transduction and tumor growth; test: Biological and biochemical assays, summary; assay type: cell-based; details: summary of all assays
From the text: Compound 1 was inhibitory for the biological and biochemical assays.

[8] = test system: 5R ras-transfected rat embryo fibroblast cell line; test: Experimental pulmonary metastasis, tumor cells pretreated in vitro; assay type: in vivo, nude mice; details: cells treated overnight, 1-10 μM; 10 d
Protocol: This example illustrates the effect of selected compounds on the development of experimental pulmonary metastases, when the tumor cells are first incubated with the compound in vitro and subsequently injected into the tail vein of nude mice. In this example, both the 5R ras-transfected rat embryo fibroblast cell line and the HT-29 human colon cancer cell line were evaluated.
The 5R ras-transfected rat embryo fibroblast cell line forms confluent pulmonary metastases within 2-3 weeks after inoculation. For the experimental metastasis assay, 5R cells were treated in culture overnight with the test compounds (1-10 μM). After culture, the cells were harvested, washed and injected into the tail vein of six-week old nude mice. After 10 d, the mice were humanely sacrificed and the lungs were removed and fixed in Bouin's solution. The visible pulmonary metastases were counted.

A2058 cells [9] = test: Ca2+ influx (receptor-operated); assay type: cell-based, human
Protocol: as §1
Additionally, CHOm5 cells and A2058-1F5 human melanoma cells adherent to glass coverslips, which had been precoated with collagen or poly-L lysine to promote adhesion, were loaded with the fluorescent intracellular calcium chelator, fura-2AM. This chelator penetrates cells where it is hydrolyzed to fura-2 which remains trapped in the cells. Excess fura-2AM is washed off the cells. Cells are studied in serum-free E2 media, containing known amounts of calcium and magnesium. The cells are subjected to treatment with carbachol (10 μM) with or without compounds 1 and 2, and with appropriate vehicle controls (DMSO or PEG-400) in a perifusion apparatus. This ligand is known to stimulate intracellular release of calcium and influx of extracellular calcium. Emitted light is measured at 510 nm after excitation at 340 and 380 nm, with the ratio of fluorescence of fura-2 being directly correlated with intracellular calcium concentrations.
Stimulated uptake of radiolabelled calcium was measured as described above. […]

[10] = test system: 5R ras-transfected rat embryo fibroblasts; test: AMF-stimulated cell motility; assay type: cell-based; details: PT, 0.5 μg/ml for 2 hr
Protocol: (§2) The cell motility assay has been described. See, Stracke et al., Biochem. Biophys. Res. Comm., 146:339-345 (1987). Cells from the A2058 human melanoma line which was maintained in subconfluent culture were harvested with trypsin-EDTA, and were allowed to recover for 1 hr at room temperature. Cells from the 5R H-ras transformed (diploid) rat embryo fibroblast line were harvested with 2 mM EDTA in PBS without divalent cations. Cells were resuspended in serum-free media containing 0.1% BSA. This DMEM/0.1% BSA was used as the control for all subsequent assays. The assays were performed in triplicate using a 48-well chemotaxis chamber with 8μ Nucleopore, type IV collagen-coated filters. The chambers were incubated at 37° C. for 4 hr, stained and placed onto glass slides with the original cell side up so that the cell pellet could be wiped from the surface. Cells that had migrated through the pores were trapped between glass and membrane and could be quantitated by laser densitometry.
(§3) Compound 1 was preincubated with the cells for various periods of time, added at the start of the assay, or added later. Additionally, compound 1 remained present during the motility assay. The cells were assayed for their motile response to AMF. AMF stimulates random and directed locomotion of 5R ras-transfected rat embryo fibroblasts and A2058 human melanoma cells. […] Cell viability determined by trypan blue exclusion averaged greater than 96%. Cells exposed to various concentrations of compound 1 were tested for their response to AMF vs. control. Percent stimulated motility (in densitometer units) is defined as: […]
(§4) (AMF stimulated-control)Compound 1 /(AMF stimulated-control)untreated

[11] = test system: A2058 human melanoma cells; test: AMF-stimulated cell motility; assay type: cell-based; details: PT, 0.5 μg/ml for 2 hr
Protocol: as §2, §3, §4

| Compound | activity at 10 µM (A2058 cells [4]; A2058, Table H, 10 μM, 96 hr) [%] | COLONY FORMATION (% OF CONTROL) (A2058 cells [6]) | other results |
| --- | --- | --- | --- |
| COc1ccc(CCCOC(Cn2ccnc2)c2ccc(OC)cc2)cc1 (stereo not shown) [Compound 2] | – | – | block of voltage-gated L-type calcium channels [1]: blocks; inhibition of RMCE (RMCE in platelets): inhibits RMCE; inhibition of RMCE [2]: inhibits RMCE; inhibition of RMCE (RMCE in neutrophils): inhibits RMCE |
| NC(=O)c1nnn(Cc2cc(Cl)c(C(=O)c3ccc(Cl)cc3)c(Cl)c2)c1NC=O [Compound 3] | 31.5 ± 7 | 10.2 ± 0.5 | Arachidonic Acid Release (% of Control) (CHOm5 cells [3]): 13.1 ± 3 % of Control; dose dependent inhibition of proliferation (A2058 cells [4]; FIG. 20A, monolayer growth): Dose dependent inhibition of proliferation; % Inhibition of 45Ca2+ Influx into CHOm5 Cells (CHOm5 cells [5]): 60%; Colony Formation (% of Control) (A2058 cells [6]): 10.2 ± 0.5 % of Control |
| CC(=O)Nc1c(C(N)=O)nnn1Cc1cc(Cl)c(C(=O)c2ccc(Cl)cc2)c(Cl)c1 [Compound 4] | 53.7 ± 15 | 10.3 ± 0.4 | Arachidonic Acid Release (% of Control) (CHOm5 cells [3]): 73.8 ± 5.9 % of Control; % Inhibition of 45Ca2+ Influx into CHOm5 Cells (CHOm5 cells [5]): 41%; Colony Formation (% of Control) (A2058 cells [6]): 10.3 ± 0.4 % of Control |
| NC(=O)c1nnn(Cc2cc(Cl)c(C(=O)c3ccc(Cl)cc3)c(Cl)c2)c1NC(=O)c1ccccc1 [Compound 5] | 39 ± 2 | 9.97 ± 1 | Arachidonic Acid Release (% of Control) (CHOm5 cells [3]): 49.2 ± 12 % of Control; % Inhibition of 45Ca2+ Influx into CHOm5 Cells (CHOm5 cells [5]): 61%; Colony Formation (% of Control) (A2058 cells [6]): 9.97 ± 1 % of Control |
| Nc1c(C(=O)O)nnn1Cc1cc(Cl)c(C(=O)c2ccc(Cl)cc2)c(Cl)c1 [Compound 6] | 45.3 ± 11 | 9.00 ± 1 | Arachidonic Acid Release (% of Control) (CHOm5 cells [3]): 49.6 ± 5 % of Control; % Inhibition of 45Ca2+ Influx into CHOm5 Cells (CHOm5 cells [5]): 38%; Colony Formation (% of Control) (A2058 cells [6]): 9.00 ± 1 % of Control |
| O=C(c1ccc(Cl)cc1)c1c(Cl)cc(Cn2ccnc2)cc1Cl [Compound 7] | 66.5 ± 9 | – | Arachidonic Acid Release (% of Control) (CHOm5 cells [3]): 92.6 ± 7 % of Control |
| NC(=O)c1nnn(Cc2ccc(C(=O)c3ccccc3)cc2)c1N [Compound 8] | 92.7 ± 9 | 93.4 ± 3 | Arachidonic Acid Release (% of Control) (CHOm5 cells [3]): 100 ± 15 % of Control; inhibition in the biological and biochemical assays [7]: did not inhibit any of the test assays; inhibition of pulmonary colonization [8]: 14%; % Inhibition of 45Ca2+ Influx into CHOm5 Cells (CHOm5 cells [5]): 0%; Colony Formation (% of Control) (A2058 cells [6]): 93.4 ± 3 % of Control; inhibition of stimulated changes in intracellular calcium (A2058 cells [9]): failed to inhibit |
| NC(=O)c1nc[nH]c1N [Compound 9] | 97 ± 3 | – | – |
| O=C(O)c1nn[nH]c1C(=O)O [Compound 10] | 92.2 ± 4 | 100 ± 3 | – |
| NC(=O)c1nnn(Cc2cccc(F)c2)c1N [Compound 11] | 89 ± 3 | – | – |
| NC(=O)c1nnn(Cc2cccc(Cl)c2)c1N [Compound 12] | 85 ± 2 | – | – |
| NC(=O)c1nnn(Cc2cccc(Br)c2)c1N [Compound 13] | 85.5 ± 13 | – | – |
| NC(=O)c1nnn(Cc2cccc(I)c2)c1N [Compound 14] | 89 ± 6 | – | – |
| NC(=O)c1nnn(Cc2cc(Cl)cc(Cl)c2)c1N [Compound 15] | – | – | % Inhibition of 45Ca2+ Influx into CHOm5 Cells (CHOm5 cells [5]): 0% |
| NC(=O)c1nnn(Cc2cc(F)cc(F)c2)c1N [Compound 16] | 111 ± 8 | – | – |
| O=C(c1ccccc1)c1ccccc1 [Compound 17] | – | 95.9 ± 3 | activity at 10 µM (A2058 cells [4]; A2058, 96 h): 98.5 ± 5% |
| O=C(c1ccccc1)c1ccc(F)cc1 [Compound 18] | 94 ± 2 | 93.0 ± 3.7 | – |
| O=C(c1ccccc1)c1ccc(Cl)cc1 [Compound 19] | 110 ± 12 | 94.3 ± 3.1 | – |
| O=C(c1ccccc1)c1ccc(Br)cc1 [Compound 20] | 97 ± 24 | 95.0 ± 1.4 | – |
| O=C(c1ccccc1)c1ccccc1Cl [Compound 21] | 123 ± 5 | 100 ± 5 | – |
| O=C(c1ccc(F)cc1)c1ccccc1Cl [Compound 23] | 101 ± 0.5 | 97.8 ± 5 | – |
| O=C(c1ccc(F)cc1)c1ccccc1F [Compound 24] | 82 ± 7 | – | – |
| O=C(c1ccccc1O)c1ccccc1O [Compound 25] | 98 ± 7 | 95.3 ± 2 | – |
| O=C(c1ccc(Cl)cc1)c1c(Cl)cc(CO)cc1Cl [Compound 26] | 101 ± 11 | 100.3 ± 1.2 | % Inhibition of 45Ca2+ Influx into CHOm5 Cells (CHOm5 cells [5]): ~ 10% |
| pertussis toxin [reference compound] | – | – | inhibition of AMF-stimulated motility by pertussis toxin [10]: markedly inhibited; inhibition of AMF-stimulated motility by pertussis toxin [11]: markedly inhibited |
